From patent US8278327B2, “PDE10 inhibitors and related compositions and methods” (Omeros Corporation, priority 2006, dated 2012)

Tests used:
[1] = target: T1, recombinant human PDE 10A1 (Homo sapiens, UniProt Q9Y233); experiment: PDE10 biochemical assay (modified two-step method of Thompson and Appleman, or SPA with [3H]-cGMP); details: PDE10 inhibition
T1 construct: made in house; host or cells: Sf9 insect cells, baculovirus
Method: Compounds of this invention may be assayed to determine their IC50 values by a modification of the two-step method of Thompson and Appleman (Biochemistry 10; 311-316; 1971). In short, cAMP is spiked with (^3H)cAMP and incubated with PDE10 and various concentrations of a compound of structure (I). After the appropriate incubation time, the reaction is terminated by heating. The mixture is then subjected to treatment with snake venom phosphatase. The phosphatase hydrolyzes any AMP in the mixture, but leaves unreacted cAMP intact. Thus, by separating cAMP from the mixture and determining its concentration (by radiography), the percent of inhibition can be determined. IO50 values can be calculated by performing the experiment at several concentrations using standard graphical means. A detailed description of the actual technique used for IC50 assays are shown in Example 8.
The phosphodiesterase (PDE) assay was performed using recombinant human PDE 1A3, 2A3, 3 catalytic region, 4 catalytic region, 5 catalytic region, 7A, 8A, 9A2, 10A1 and 11A1 enzymes expressed in a baculoviral system using Sf9 cells. PDE activity was measured using a modification of the two-step method of Thompson and Appleman described above which was adapted for 96 well plate format. […] The final assay volume was 110 μl with assay buffer (10 mM MgCl2; 40 mM Tris.HCl; pH 7.4). Reactions were initiated with enzyme and incubated with (^3H)—substrate and substance for 20 minutes at 30° C. The reaction was terminated by denaturing the enzyme (heating the reaction to 70° C. for 2 minutes). […] The soluble fraction (50 μl) was then added to microscint-20 (200 μl) and counted on a Top Count Plate reader. Radioactivity units were plotted against inhibitor concentration and IC50 values obtained using Graph Pad Prism software.
Alternatively, phosphodiesterase activity was measured by scintillation proximity assay (SPA) with [^3H]-cGMP as substrate. […] Inhibition was evaluated at 8 concentrations in duplicate. […] The mixture was shaken, allowed to settle for 3 hours, and counted in a Wallac plate counter. […]

[2] = test system: C57BL/6 male mice; experiment: Conditioned avoidance response (CAR); assay type: in vivo
Description: Conditioned avoidance response (CAR) is a behavioral test to evaluate antipsychotic effect of a test compound. It utilizes a shuttle box (Med Associates, St. Albans, Vt.) with two equal chambers separated by a retractable door. Each chamber is fitted with metal grid floor that is capable of delivering electric shocks independently. A computer program is used to implement the testing paradigm as well as record the animal's movement between the two chambers through infrared beam sensors. The testing paradigm is as the follows. A mouse is placed into one chamber. A light (conditioned stimulus, CS) comes on. Five seconds later, mild electric shocks (0.4 mA) (unconditioned stimulus, US) are delivered to the chamber where the mouse is located (as detected by infrared beams) until the mouse escapes to the adjacent chamber or until 10 sec has elapsed. The US and CS always co-terminate. With randomized inter-trial intervals averaging 15 sec, 30 such CS-US pairing trials are given to each mouse each day. For each trial, an escape response is registered if the mouse crosses to the other chamber after being shocked (i.e., during the 10-sec US period), and an avoidance response is registered if the mouse crosses to the other chamber during the first 5-sec CS only period. The animals are trained in such paradigm for 15-20 days, during which the average percentage of avoidance responses will improve to 60-80%. […] These trained animals are then used for compound testing using the same paradigm.
C57BL/6 male mice were trained in the CAR paradigm to predict and avoid the noxious stimulus, reaching a plateau of approximately 20-25 avoidance responses per 30 trials (“training plateau”) each day. The mice were then injected with compound or vehicle via i.p., and 20 minutes later they were tested for 30 trials in the CAR paradigm. Vehicle treatment and compound treatment were given to the same animals on alternating days, and the effect of compound in reducing avoidance response was analyzed through within-subject comparison (paired t-test).

[3] = test system: C57BL/6 male mice; experiment: PCP-induced hyperactivity; assay type: in vivo; details: PCP 5 mg/kg, p<0.001
Method: Psychostimulant-induced hyperactivity is measured by injecting animals with PCP or amphetamine and monitoring the animals' activity levels in the VersaMax chambers (Accuscan Instruments, Columbus, Ohio) measuring 40×40 cm. Locomotor activity is detected by photobeam breaks as the animal crosses each beam. The animal is placed in the center of the field and left undisturbed for a period of time (20 min to 2 hr) to measure its spontaneous activity in a novel environment. Measurements used to assess locomotor activity include: horizontal activity, total distance traveled, vertical activity (rearing events—animal raises up on hindlimbs), rotation, stereotypy, and distance traveled in the center compared to total distance traveled (center:total distance ratio). Psychostimulants, including dopamine agonist amphetamine and NMDA antagonist PCP, induce psychosis-like conditions manifested as hyperactivity and increased stereotypic behavior. Known antipsychotics are able to reverse psychostimulant-induced hyperactivity and increased stereotypy.

[4] = test system: PDE10; details: Soderling and Beavo 2000, read-out: IC50 (50% inhibitory concentration); cited from earlier work
[5] = test system: C57BL/6 male mice; details: 50 mg/kg i.p., 30 min after injection, vs vehicle control
[6] = test system: C57BL/6 male mice; experiment: Amphetamine-induced hyperactivity; assay type: in vivo; details: 50 mg/kg i.p., amphetamine 5 mg/kg, vs vehicle+amph control, p<0.01
[7] = test system: C57BL/6 male mice; experiment: Novel object recognition test (PCP-disrupted); assay type: in vivo; details: 10 mg/kg i.p. with PCP 5 mg/kg, tested 24 h later, p<0.01 vs PCP-treated group
Method: The antipsychotic effect of a test compound may also be evaluated by a novel object recognition test. In a novel object recognition test, mice are housed singly for 1-2 days and then injected with vehicle, PCP, or PCP plus the test compound. Twenty minutes after injection, the mice are presented with and allowed to explore two identical objects for 30 minutes. At the end of the exploration period the objects are removed. Twenty-four hours later each mouse is presented with a pair of objects, one familiar and one novel. After a variable delay, the mice begin to explore the objects. The time exploring each object is measured for 4 minutes starting from the first approach to either object. The fraction of total exploration time spent studying the novel object is recorded as a measure of novelty recognition.
At the end of the exploration period, the objects were removed. Twenty-four hours later, each mouse was presented with a pair of objects, one familiar and one novel, and the time exploring each object was measured for 4 minutes starting from the first approach to either object.

[8] = 50 mg/kg i.p., vs vehicle+PCP control
[9] = 0.2 mg/kg i.p., vs vehicle+PCP control

T1 sequence (Q9Y233 1-779 isoform Q9Y233-1): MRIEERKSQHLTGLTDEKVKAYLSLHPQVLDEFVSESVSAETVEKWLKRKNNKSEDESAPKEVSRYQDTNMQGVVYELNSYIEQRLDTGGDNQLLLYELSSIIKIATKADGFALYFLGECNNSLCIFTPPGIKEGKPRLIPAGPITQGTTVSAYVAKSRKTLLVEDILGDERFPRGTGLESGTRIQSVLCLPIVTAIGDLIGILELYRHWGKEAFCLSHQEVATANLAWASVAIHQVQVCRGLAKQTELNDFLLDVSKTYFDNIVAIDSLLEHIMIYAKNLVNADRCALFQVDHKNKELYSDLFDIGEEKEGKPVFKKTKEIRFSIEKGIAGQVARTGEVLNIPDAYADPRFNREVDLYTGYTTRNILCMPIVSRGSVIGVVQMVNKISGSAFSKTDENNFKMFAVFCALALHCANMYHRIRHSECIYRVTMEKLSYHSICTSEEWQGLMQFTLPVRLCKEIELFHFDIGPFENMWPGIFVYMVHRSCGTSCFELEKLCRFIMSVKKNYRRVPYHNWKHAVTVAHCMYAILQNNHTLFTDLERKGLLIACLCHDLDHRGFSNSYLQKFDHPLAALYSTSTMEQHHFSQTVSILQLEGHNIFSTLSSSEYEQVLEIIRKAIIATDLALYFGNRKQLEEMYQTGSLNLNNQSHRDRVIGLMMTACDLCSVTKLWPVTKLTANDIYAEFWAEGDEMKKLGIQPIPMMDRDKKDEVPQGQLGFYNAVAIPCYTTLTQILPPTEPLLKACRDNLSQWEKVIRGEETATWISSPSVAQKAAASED

COc1cc(/C=N/NC(=O)CC2Sc3ccccc3NC2=O)cc(OC)c1OC (stereo not drawn) [Compound 1-1, (E)-2-(3-oxo-3,4-dihydro-2H-benzo[B][1,4]thiazin-2-yl)-N′-(3,4,5-trimethoxybenzylidene)acetohydrazide]
IC50 [1]: ≤ 1000 nM

CCOc1ccc(/C=N/NC(=O)CSc2nc3ccccc3n2Cc2ccccc2)cc1OC [Compound 4-1, (E)-2-(1-benzyl-1H-benzo[d]imidazol-2-ylthio)-N′-(4-ethoxy-3-methoxybenzylidene)acetohydrazide]
IC50 [1]: ≤ 1000 nM

COc1cc(/C=N/NC(=O)CSc2cc(C)nc3ccccc23)cc(OC)c1O [Compound 5-110]
number of avoidance response ([2]; 10 mg/kg, procedure as in Example 12, p<0.01): significantly reduces
hyperactivity induced by PCP ([3]; 30 mg/kg): significantly reduces
stereotypy induced by PCP ([3]; 30 mg/kg): significantly reduces

CC(C)Cn1c(=O)n(C)c(=O)c2[nH]cnc21 [IBMX]
IC50 [4]: 2600 nM

COc1ccc(/C=N/NC(=O)CSc2cc(C)nc3ccccc23)cc1OC [Compound 5-1, (E)-N′-(3,4-dimethoxybenzylidene)-2-(2-methylquinolin-4-ylthio)acetohydrazide]
startle response [5]: does not affect
PPI at 3 different prepulse levels ([5]; p<0.05, p<0.01): significantly increases
IC50 [1]: ≤ 1000 nM
number of avoidance response ([2]; 30 mg/kg i.p., tested 20 min later, 30 trials, p<0.001): significantly reduces
hyperactivity induced by PCP [3, 8]: completely abolishes
stereotypy induced by PCP [3, 8]: completely abolishes
hyperactivity induced by amphetamine [6]: partially but significantly reduce
stereotypy induced by amphetamine [6]: partially but significantly reduce

COc1ccc2nc(C)cc(SCC(=O)NN=Cc3cc(OC)c(OC)c(OC)c3)c2c1 [Compound 5-184]
novel object recognition performance [7]: able to restore

O=C(CCCN1CCC(O)(c2ccc(Cl)cc2)CC1)c1ccc(F)cc1 [haloperidol, reference compound]
number of avoidance response ([2]; 0.15 mg/kg i.p., tested 20 min later, 30 trials, p<0.001): significantly reduces
hyperactivity induced by PCP [3, 9]: significantly reduce
stereotypy induced by PCP [3, 9]: significantly reduce
